Measured values reported in the NIST ThermoML archive (doi:10.1016/j.fluid.2016.10.024).
± gives the expanded uncertainty stated by the source.

Assay: refractive index (Na D-line) (dimensionless)
Details: 293.15 K; 101.33 kPa; Liquid; Standard Abbe refractometry

Row | refractive index | Structure (SMILES)
1 | 1.3978 ± 0.0011 | CCC(C)O (stereo not drawn) [butan-2-ol]
2 | 1.3809 ± 0.001 | CCC(=O)O [propanoic acid]

Row | Structure (SMILES) | refractive index
3 | CC(C)=O [acetone] | 1.3588 ± 0.0011
